Measurements: PMC3985486 (Biochemistry, 2014)
Converted amounts (≈) assume the structure as drawn.

Key:
[1] = tested on: E. faecalis strain ATCC 29212; test: Broth microdilution MIC, E. faecalis; format: cell-based, Enterococcus faecalis
[2] = tested on: S. aureus strain ATCC 29213; test: Broth microdilution MIC, S. aureus; format: cell-based, Staphylococcus aureus
[3] = Enterococcus faecalis, ATCC29212, pH 5.8, E. faecalis 29212, pH 5.8
[4] = Enterococcus faecalis, ATCC29212, pH 7, E. faecalis 29212, pH 7
[5] = Staphylococcus aureus, ATCC29213
[6] = Staphylococcus aureus, ATCC29213, pH 5.8
[7] = Staphylococcus aureus, ATCC29213, pH 7

MIC [1, 3] [µg/mL] | MIC [1, 4] [µg/mL] | MIC [2, 5] [µg/mL] | MIC [2, 6] [µg/mL] | MIC [2, 7] [µg/mL] | MIC ([1]; E. faecalis 29212, folinic acid 0.1 μg/mL added) [µg/mL] | MIC ([1]; E. faecalis 29212, pH 5.8) [µg/mL] | MIC ([1]; E. faecalis 29212, pH 7) [µg/mL] | MIC ([2]; S. aureus 29213, folinic acid 0.1 μg/mL added) [µg/mL] | MIC ([2]; S. aureus 29213, pH 5.8) [µg/mL] | MIC ([2]; S. aureus 29213, pH 7) [µg/mL] | increase in MIC in acidic environment ([1]; E. faecalis, acidic pH vs pH 7) | shift (increase) in MIC with exogenous folinic acid ([1]; E. faecalis, folinic acid in media vs none) | increase in MIC in acidic environment ([2]; S. aureus, acidic pH vs pH 7) | Structure (SMILES)
0.125 to 0.25 (≈ 0.257 to 0.514 µM) | 0.06 (≈ 0.123 µM) | 0.06 (≈ 0.123 µM) | 0.25 (≈ 0.514 µM) | 0.03 to 0.06 (≈ 0.0617 to 0.123 µM) | – | – | – | – | – | – | – | – | – | CCC[C@H]1c2ccccc2C=NN1C(=O)/C=C/c1cc(Cc2cnc(N)nc2N)cc(OC)c1OC (racemic) [RAB, (S,E)-3-{5-[(2,4-diaminopyrimidin-5-yl)methyl]-2,3-dimethoxyphenyl}-1-[1-propylphthalazin-2(1H)-yl]-2-propen-1-one]
– | – | – | – | – | 2 to 4 | 1 to 2 | 1 to 2 | 1 (≈ 0.69 µM) | 1 (≈ 0.69 µM) | 1 (≈ 0.69 µM) | – | – | – | CN[C@H](CC(C)C)C(=O)N[C@H]1C(=O)N[C@@H](CC(N)=O)C(=O)N[C@H]2C(=O)N[C@H]3C(=O)N[C@H](C(=O)N[C@H](C(=O)O)c4cc(O)cc(O)c4-c4cc3ccc4O)[C@H](O)c3ccc(c(Cl)c3)Oc3cc2cc(c3O[C@@H]2O[C@H](CO)[C@@H](O)[C@H](O)[C@H]2O[C@H]2C[C@](C)(N)[C@H](O)[C@H](C)O2)Oc2ccc(cc2Cl)[C@H]1O [VAN]
1 (≈ 3.44 µM) | 0.125 to 0.25 (≈ 0.431 to 0.861 µM) | 2 to 4 (≈ 6.89 to 13.8 µM) | 8 (≈ 27.6 µM) | 2 (≈ 6.89 µM) | – | – | – | – | – | – | 2–3 fold | up to 1 fold | 2–3 fold | COc1cc(Cc2cnc(N)nc2N)cc(OC)c1OC [TMP, trimethoprim]
